{"source": "patent US20090196942A1", "about": "“TOPICAL COMPOSITIONS CONTAINING CITRUS JABARA EXTRACT” (priority 2008, published 2009)", "test_system": "rat basophil leukemia cells (line RBL-2H3)", "assay": "Histamine release from calcium ionophore A23187-stimulated RBL-2H3 cells (Histamine ELISA)", "type": "cell-based", "conditions": "Calcium Ionophore 2 μM, supernatant histamine by ELISA", "procedure": "Citrus Jabara extract was tested to determine its effectiveness in blocking histamine release. Histamine is released by skin and tissues in response to immune challenge. Ingredients that will block the release of histamine improve the soothing properties of skin care products into which they are incorporated. To perform the test, rat basophil leukemia cells (line RBL-2H3) were grown in Dulbecco's Modified Eagle Medium (DMEM) with 10% heat inactivated fetal calf serum, and seeded in 24 well plates at 2.5×10^5 cells/well. The cells were grown overnight and the culture media was removed from the wells and replaced with 1 ml of PIPES buffer (100 mM NaCl, 5 mM KCl, 0.4 mM MgCl2, 1 mM CaCl2, and 5.6 mM D-glucose), pH 7.2. This buffer is known to reduce the spontaneous release of histamine. Stock solutions were prepared: (1) Positive Control: A 10 mM stock solution of diosmetin in DMSO; (2) Active: Citrus Jabara powder—100 mg/ml in DMSO; (3) Calcium Ionophore: 2 mM in DMSO (Sigma Calcium Ionophore A23187). The Control was added to four separate wells varying the final concentration of the Control in each well to 1, 3, 10, and 30 μM. The Active was added to four other wells in varying percentage concentrations ranging from 0.01%, .05%, 0.1%, and 0.5% w/v in each plate. One well was left untreated with cells only. Another single well contained DMSO at a final concentration of less than 1% v/v. […]", "data": [{"smiles": "COc1ccc(-c2cc(=O)c3c(O)cc(O)cc3o2)cc1O", "note": "[diosmetin]", "values": [{"measurement": "inhibition at 30 µM", "value": 85, "unit": "%"}]}]}
